Key:
[1] = molecular target: T1, CB2 receptor (Mus musculus, UniProt P47936); assay: Radioligand binding assay ([H^3]CP-55,940), mouse spleen as source of CB2; details: for Ki: mouse spleen, conducted in the same manner as for CB1, Ki from IC50 (Cheng and Prusoff)
T1 construct: Mouse spleen was used as a source of CB2 receptors; from tissue; host or cells: mouse spleen
Procedure: (§1) Approximately 30 μg of tissue was incubated in silanized 96 well microtiter plate with TME containing 0.1% essentially fatty acid free bovine serum albumin (BSA), 0.8 nM [H^3 ]CP-55,940 and various concentrations of the test compound in a final volume of 200 μL. Assays were incubated at 30° C. for 1 hour. The samples were filtered using Packard Filtermate 196 and Whatman GF/C Filterplates and washed with wash buffer (TME) containing 0.5% BSA. Radioactivity was detected using MicroScint 20 scintillation cocktail added directly to the dried filterplates, and the filterplates were counted using a Packard Instruments Top-Count. Nonspecific binding was assessed using 100 nM CP-55,940. Data collected from three independent experiments performed with duplicate determinations were normalized between 100% and 0% specific binding for [H^3 ]CP-55,940, determined using buffer and 100 nM CP-55,940. The normalized data was analyzed using a 4 parameter nonlinear logistic equation to yield IC50 values. Data from at least two independent experiments performed in duplicate were used to calculate IC50 values which were convered to Ki values using the assumptions of Cheng and Prusoff, Biochem. Pharmacol. 22:3099 (1973), the entire teachings of which are incorporated by reference.
Mouse spleen was used as a source of CB2 receptors to assess binding affinity of analogs described in this invention. The CB2 binding assay was conducted in the same manner as for CB1. Silanized centrifuge tubes were used throughout to minimize receptor loss due to adsorption.

[2] = molecular target: T2, CB1 receptor (Rattus norvegicus, UniProt P20272); assay: Radioligand binding assay ([H^3]CP-55,940), rat forebrain membranes as source of CB1; details: 0.8 nM [H^3]CP-55,940, 30° C., 1 hour, Ki from IC50 (Cheng and Prusoff)
T2 construct: rat forebrain membranes as a source of CB1; from tissue; host or cells: rat brain membranes (called forebrain; prepared from whole brains minus the cerebral cortex)
T2 sequence (P20272 whole entry): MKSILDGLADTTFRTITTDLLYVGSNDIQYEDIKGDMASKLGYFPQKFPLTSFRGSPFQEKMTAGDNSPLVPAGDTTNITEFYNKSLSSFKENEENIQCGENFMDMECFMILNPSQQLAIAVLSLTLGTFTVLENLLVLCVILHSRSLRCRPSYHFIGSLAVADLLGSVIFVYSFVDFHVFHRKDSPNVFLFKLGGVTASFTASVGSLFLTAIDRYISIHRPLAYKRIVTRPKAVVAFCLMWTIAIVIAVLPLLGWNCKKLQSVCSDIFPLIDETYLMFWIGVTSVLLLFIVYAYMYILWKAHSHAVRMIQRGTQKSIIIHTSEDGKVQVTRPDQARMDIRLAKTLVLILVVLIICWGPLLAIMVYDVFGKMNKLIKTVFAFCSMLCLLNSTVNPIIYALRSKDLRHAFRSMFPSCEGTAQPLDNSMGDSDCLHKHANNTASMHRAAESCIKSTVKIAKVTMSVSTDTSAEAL
Procedure: The binding affinities of the novel compounds described in this invention for the central cannabinoid receptor were assessed using rat forebrain membranes as a source of CB1. Membranes were prepared as described by the method of Dodd et al., Brain Res. 226:107 (1981), the entire teachings of which are incorporated herein by reference. Rat whole brains minus the cerebral cortex were diced with a razor blade and homogenized in 0.32 M sucrose, pH 7.4. The resulting suspension was spun at 400×g at 4° C. The supernatant was decanted and layered over 1.2 M sucrose in TME buffer (25 mM Tris base, 5 mM MgCl2 1 mMEDTA, pH 7.4) and spun at 109,000×g. The interface containing plasma membrane protein was collected, pooled and layered over 0.8 M sucrose in TME, pH 7.4. The pellet was carefully resuspended in TME, pH 7.4 and the total protein content was assayed by the method of Markwell et al., Anal. Biochem. 87:206 (1978), the entire teachings of which are incorporated herein by reference. Protein was aliquotted, frozen under liquid nitrogen and stored at -80° C. until use.
as §1

[3] = system: CB2 receptor; details: in the spleen; background; cited from earlier work
[4] = system: CB1 receptor; details: in the brain; background; cited from earlier work

T1 sequence (P47936 whole entry): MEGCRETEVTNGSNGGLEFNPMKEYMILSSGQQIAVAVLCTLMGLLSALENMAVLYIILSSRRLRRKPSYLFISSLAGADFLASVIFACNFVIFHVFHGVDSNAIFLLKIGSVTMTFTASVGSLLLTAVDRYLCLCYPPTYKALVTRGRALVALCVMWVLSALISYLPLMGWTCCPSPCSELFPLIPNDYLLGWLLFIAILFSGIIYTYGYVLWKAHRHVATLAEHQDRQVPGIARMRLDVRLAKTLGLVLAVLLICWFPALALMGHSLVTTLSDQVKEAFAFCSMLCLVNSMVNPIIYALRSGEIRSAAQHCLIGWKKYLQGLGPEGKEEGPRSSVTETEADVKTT

Row | SMILES | Ki [1] | Ki [2] | binding to the CB2 receptor [3] | binding to the CB1 receptor [4] | affinity for the CB2 receptor relative to the CB1 receptor ([1]; CB2 (mouse spleen) versus CB1 (rat forebrain))
1 | CCCCCCC1CCc2cc(O)c3c(c2C1)OC(C)(C)C1CC=C(C)CC31 (stereo not shown) [AM855] | 58.6 nM | 22.3 nM |  |  | 
2 | CCCCCC1CCc2c(cc3c(c2O)C2CC(C)=CCC2C(C)(C)O3)C1 (stereo not shown) [AM856] | 162 nM | 402 nM |  |  | 
3 | CCCCCc1cc(O)c2c(c1)OC(C)(C)C1CC=C(C)CC21 (single isomer, unassigned) [Δ^8 -Tetrahydrocannabinol] |  |  | binds | binds | 
4 | CC1=CCC2C(C1)c1c(cc3c(c1O)C1CC(CCC1C)C3(C)C)OC2(C)C (stereo not shown) [AM724] | 16.9 nM | 6880 nM |  |  | about 400 times
5 | CCCCCCC1CCCc2c1cc(O)c1c2OC(C)(C)C2CC=C(C)CC12 (stereo not shown) [AM858] | 456 nM | 524 nM |  |  | 
6 | CC1=CCC2C(C1)c1c(cc3c(c1O)C1CC(CCC1C)C3(C)C)OC2(C)C (stereo not shown) [AM725] | 281 nM | 360000 nM |  |  | 

From patent publication US6166066A, “Cannabinoids selective for the CB2 receptor” (The University of Connecticut, priority 1999, dated 2000)
